Test results taken from patent US20210371351A1, “MIXTURES COMPRISING AT LEAST TWO DIFFERENT NITRIFICATION INHIBITORS SELECTED FROM 2-(3,4-DIMETHYL-1H-PYRAZOL-1-YL)SUCCINIC ACID (DMPSA), 3,4-DIMETHYL PYRAZOLIUM GLYCOLATE (DMPG) AND OTHER COMPOUNDS” (BASF SE, priority 2017, published 2021).

Tested on: nitrification
Assay: Example 5: soil incubation in bottles with ammonium sulfate, DMPSA, DCD or mixtures, 5 to 15° C., 0 up to 56 days; recovery NH4 (RE/RC), net recovery NH4 (NE/NC), inhibition of NO3 formation (IE/IC, Böhland; Colby)
Parameters: unit not given here
Method: 100 g soil is filled into 500 ml plastic bottles (e.g. soil sampled from the field) and is moistened to 50% water holding capacity. The soil is incubated at 20° C. for two weeks to activate the microbial biomass. 1 ml test solution, containing the compositions and mixtures of the invention in the appropriate concentration, or DMSO and 5 to 10 mg nitrogen in the form of ammoniumsulfate-N is added to the soil and everything mixed well. Bottles are capped but loosely to allow air exchange. The bottles are then incubated at 5 to 15° C. for 0 up to 56 days.
For analysis, 300 ml of a 1% K2SO4-solution is added to the bottle containing the soil and shaken for 2 hrs in a horizontal shaker at 150 rpm. Then the whole solution is filtered through a Macherey-Nagel Filter MN 807′/. Ammonium and nitrate content is then analyzed in the filtrate in an autoanalyzer at 550 nm (Merck, AA11).
The Böhland equation is described in Böhland, H., et al. (1973) “Mittel zur Hemmung bzw. Regelung der Nitrifikation von Ammoniumstickstoff in Kulturböden”. DDR-Wirtschaftspatent (Economic patent of the German Democratic Republic) C 05c 169 727. Cited by: Peschke, H. (1985) “Zur Bewertung der inhibierenden Wirkung von Nitrifiziden im Boden”, Zbl. Mikrobiol. 140, pp. 583-588.

2-(3,4-dimethyl-1H-pyrazol-1-yl)succinic acid and/or 2-(4,5-dimethyl-1H-pyrazol-1-yl)succinic acid [DMPSA]
IE inhibition of NO3 formation (IT5° C., DAT10, % a.i.: DMPSA 0.5, DCD 1, DMPSA + DCD 0.5 + 1 (1:2)): 18
IE inhibition of NO3 formation (IT5° C., DAT10, % a.i.: DMPSA 0.5, DCD 3, DMPSA + DCD 0.5 + 3 (1:6)): 18
IE inhibition of NO3 formation (IT5° C., DAT20, % a.i.: DMPSA 0.5, DCD 1, DMPSA + DCD 0.5 + 1 (1:2)): 20
IE inhibition of NO3 formation (IT5° C., DAT20, % a.i.: DMPSA 0.5, DCD 3, DMPSA + DCD 0.5 + 3 (1:6)): 20
IE (inhibition of NO3 formation, Böhland) (IT5° C., DAT28, % a.i. DMPSA 0.25, DCD 1): 77
IE (inhibition of NO3 formation, Böhland) (IT5° C., DAT28, % a.i. DMPSA 0.25, DCD 3): 77
IE (inhibition of NO3 formation, Böhland) (IT5° C., DAT28, % a.i. DMPSA 0.30, DCD 0.05): 42
IE (inhibition of NO3 formation, Böhland) (IT5° C., DAT28, % a.i. DMPSA 0.50, DCD 0.08): 41
IE inhibition of NO3 formation (IT5° C., DAT28, % a.i.: DMPSA 0.50, DCD 0.0125, DMPSA + DCD 0.50 + 0.0125 (40:1)): 44
IE inhibition of NO3 formation (IT5° C., DAT28, % a.i.: DMPSA 0.50, DCD 0.0143, DMPSA + DCD 0.50 + 0.0143 (35:1)): 44
IE inhibition of NO3 formation (IT5° C., DAT28, % a.i.: DMPSA 0.50, DCD 0.0167, DMPSA + DCD 0.50 + 0.0167 (30:1)): 44
IE inhibition of NO3 formation (IT5° C., DAT30, % a.i.: DMPSA 0.5, DCD 1, DMPSA + DCD 0.5 + 1 (1:2)): 66
IE inhibition of NO3 formation (IT5° C., DAT30, % a.i.: DMPSA 0.5, DCD 3, DMPSA + DCD 0.5 + 3 (1:6)): 66
IE (inhibition of NO3 formation, Böhland) (IT5° C., DAT42, % a.i. DMPSA 0.25, DCD 1): 75
IE (inhibition of NO3 formation, Böhland) (IT5° C., DAT42, % a.i. DMPSA 0.25, DCD 3): 75
IE (inhibition of NO3 formation, Böhland) (IT5° C., DAT42, % a.i. DMPSA 0.30, DCD 0.05): 55
IE (inhibition of NO3 formation, Böhland) (IT5° C., DAT42, % a.i. DMPSA 0.50, DCD 0.08): 53
IE (inhibition of NO3 formation, Böhland) (IT5° C., DAT56, % a.i. DMPSA 0.25, DCD 1): 83
IE (inhibition of NO3 formation, Böhland) (IT5° C., DAT56, % a.i. DMPSA 0.25, DCD 3): 83
IE (inhibition of NO3 formation, Böhland) (IT5° C., DAT56, % a.i. DMPSA 0.30, DCD 0.05): 63
IE inhibition of NO3 formation (IT10° C., DAT10, % a.i.: DMPSA 0.5, DCD 1, DMPSA + DCD 0.5 + 1 (1:2)): 70
IE inhibition of NO3 formation (IT10° C., DAT10, % a.i.: DMPSA 0.5, DCD 3, DMPSA + DCD 0.5 + 3 (1:6)): 70
IE inhibition of NO3 formation (IT10° C., DAT20, % a.i.: DMPSA 0.5, DCD 1, DMPSA + DCD 0.5 + 1 (1:2)): 7
IE inhibition of NO3 formation (IT10° C., DAT20, % a.i.: DMPSA 0.5, DCD 3, DMPSA + DCD 0.5 + 3 (1:6)): 7
IE (inhibition of NO3 formation, Böhland) (IT10° C., DAT28, % a.i. DMPSA 0.25, DCD 1): 59
IE (inhibition of NO3 formation, Böhland) (IT10° C., DAT28, % a.i. DMPSA 0.25, DCD 3): 59
IE (inhibition of NO3 formation, Böhland) (IT10° C., DAT28, % a.i. DMPSA 0.30, DCD 0.05): 51
IE (inhibition of NO3 formation, Böhland) (IT10° C., DAT28, % a.i. DMPSA 0.50, DCD 0.08): 46
IE inhibition of NO3 formation (IT10° C., DAT28, % a.i.: DMPSA 0.50, DCD 0.0125, DMPSA + DCD 0.50 + 0.0125 (40:1)): 62
IE inhibition of NO3 formation (IT10° C., DAT28, % a.i.: DMPSA 0.50, DCD 0.0143, DMPSA + DCD 0.50 + 0.0143 (35:1)): 62
IE inhibition of NO3 formation (IT10° C., DAT28, % a.i.: DMPSA 0.50, DCD 0.0167, DMPSA + DCD 0.50 + 0.0167 (30:1)): 62
IE inhibition of NO3 formation (IT10° C., DAT30, % a.i.: DMPSA 0.5, DCD 1, DMPSA + DCD 0.5 + 1 (1:2)): 79
IE inhibition of NO3 formation (IT10° C., DAT30, % a.i.: DMPSA 0.5, DCD 3, DMPSA + DCD 0.5 + 3 (1:6)): 79
